The source of these data is patent publication US8536212B2, “Protective agent for retinal nerve or optic nerve” (Sanwa Kagaku Kenkyusho Co., Ltd., priority 2007, dated 2013).

The subject of the assay is retinal ganglion cells. Nature of the assay: Mouse ophthalmic artery occlusion model: retinal ischemia 2 hours, reperfusion 22 hours, survival of retinal ganglion cells. The settings on record: for The number of surviving retinal ganglion cells per 1 μm of retina section, average ± SEM: drug given by forced intragastric administration 15 minutes before reperfusion. In kind it is in vivo, C57BL/6N normal mice (wild type mice). The procedure: In the experiment, mouse models with acute ophthalmic artery infarction, namely, mouse models with ophthalmic artery infarction were used. In Experiment 1, eight to ten-week-old C57BL/6N normal mice (wild type mice) were used and the therapeutic efficacy of fidarestat as the compound with aldose reductase (AR) inhibiting activity was evaluated. Here, those mice were divided into two groups: a control group to which only vehicle was administered and a fidarestat administered group to which fidarestat was administered. In Experiment 2, eight to ten-week-old C57BL/6N normal mice (wild type mice:AR^+/+ mice) and AR gene-deficient mice (AR^−/− mice) were used and the role of AR was examined. Here, those mice were divided into two groups: a wild type mouse group (AR^+/+ mice) and an AR gene-deficient mouse group (AR^−/− mice) and a drug administered group was not used.
Used mice (24 to 28 g of body weight) were subjected to intraluminal suture with nylon monofilament under gas anesthesia. A nylon filament was inserted into the right internal carotid artery at the bifurcation of the middle cerebral artery and the anterior cerebral artery from the common carotid artery. The mice were subjected to retinal ischemia in the right eye. The filament was pulled 2 hours after the ischemia and reperfusion was performed for 22 hours. On the other hand, left eye was evaluated as a normal control eye. In order to confirm ischemia or reperfusion, relative cerebral blood flow (rCBF) in the middle cerebral artery was monitored with a laser Doppler meter during the experiment. Decrease in the rCBF of 75% or more was defined as middle cerebral artery ischemia. The drug was administered 15 minutes before reperfusion starts by forced intragastric administration. At the end of the experiment, the isolated eyes were fixed in 4% paraformaldehyde at 4° C. overnight. The retinal ganglion cell layer was subjected to hematoxylin and eosin stain. Then, the number of surviving retinal ganglion cells was observed and measured. […] All cells of the retina ganglionic layer in each retina section were measured. Further, all measurements were performed by a blind fashion.

SMILES strings stand for the structures.

On to `NC(=O)[C@@H]1C[C@]2(NC(=O)NC2=O)c2cc(F)ccc2O1` [Fidarestat, (2S,4S)-6-fluoro-2′,5′-dioxospiro[chroman-4,4′-imidazolidine]-2-carboxamide], for which the “The number of surviving retinal ganglion cells per 1 μm of retina section, average ± SEM” value is 23 ± 1 per 1 μm of retina section (side of no retinal ischemia (left eye, normal control eye)); 21 ± 1^†††^ per 1 μm of retina section (side of retinal ischemia (right eye), 2 hours ischemia and 22 hours reperfusion, P<0.001 vs control group). For the same molecule, the “Pathological finding showing retinal ganglion cell death (hematoxylin and eosin stain)” value (side of retinal ischemia or side of no retinal ischemia, 2 hours ischemia, 22 hours reperfusion (FIG. 1: D3, D4)) was “not observed”. For the same molecule, the “Number of surviving retinal ganglion cells on the side of retinal ischemia compared with the control group” value (side of retinal ischemia, P<0.001) was “significantly increased”.
